Where two headings read alike, the source gives them in different places.
Legend:
Uromyces phaseoli [1] = assay: whole plant or invertebrate; settings: foliar, read-out: Percent Disease Control, foliar, bean rust
Uromyces phaseoli [2] = assay: whole plant or invertebrate; settings: foliar, 24 h, read-out: Percent Disease Control, curative, bean rust
Erysiphe polygoni = assay: whole plant or invertebrate; settings: foliar, 24 h, read-out: Percent Disease Control, curative, bean powdery mildew
Sclerotinia fructicola = assay: Mycelial growth test; assay type: cell-based; settings: Sclerotinia, 72 h, SF, read-out: Percent Fungus Growth Inhibition
Excerpt: | SF = Sclerotinia fructicola

Pyricularia oryzae = assay: whole plant or invertebrate; assay type: in vivo; settings: Pyricularia oryzae, foliar, 24 h, read-out: Percent Disease Control, curative, rice blast, 150 ppm, 24 hours after inoculation

CNC(=O)Nc1ccc(Oc2nsnc(Cl)c2=O)cc1 [Compound 28, 3-chloro-5-[4-(3-methylureido)-phenoxy]-4H--1,2,6-thiadiazin-4-one]
pest or weed control at 150 ppm (Uromyces phaseoli [1]): 0% | pest or weed control at 150 ppm (Uromyces phaseoli [2]): 0% | pest or weed control at 150 ppm (Erysiphe polygoni): 50% | inhibition at 5 ppm (Sclerotinia fructicola): 17% | inhibition at 10 ppm (Sclerotinia fructicola): 28% | inhibition at 20 ppm (Sclerotinia fructicola): 0% | inhibition at 40 ppm (Sclerotinia fructicola): 62% | pest or weed control at 150 ppm (Pyricularia oryzae): 0%

O=C(Nc1ccccc1)Nc1ccc(Oc2nsnc(Cl)c2=O)cc1 [Compound 29, 3-chloro-5-[4-(3-phenylureido)-phenoxy]-4H--1,2,6-thiadiazin-4-one]
pest or weed control at 150 ppm (Uromyces phaseoli [1]): 0% | pest or weed control at 150 ppm (Uromyces phaseoli [2]): 0% | pest or weed control at 150 ppm (Erysiphe polygoni): 0% | inhibition at 5 ppm (Sclerotinia fructicola): 28% | inhibition at 10 ppm (Sclerotinia fructicola): 31% | inhibition at 20 ppm (Sclerotinia fructicola): 0% | inhibition at 40 ppm (Sclerotinia fructicola): 7% | pest or weed control at 150 ppm (Pyricularia oryzae): 0%

O=c1c(Cl)nsnc1Oc1c(Cl)cc(Cl)cc1Cl [Compound 30, 3-chloro-5-(2,4,6-trichlorophenoxy)-4H--1,2,6-thiadiazin-4-one]
pest or weed control at 150 ppm (Uromyces phaseoli [1]): 100% | pest or weed control at 150 ppm (Uromyces phaseoli [2]): 0% | pest or weed control at 150 ppm (Erysiphe polygoni): 100% | inhibition at 5 ppm (Sclerotinia fructicola): 50% | inhibition at 10 ppm (Sclerotinia fructicola): 87% | inhibition at 20 ppm (Sclerotinia fructicola): 97% | inhibition at 40 ppm (Sclerotinia fructicola): 97% | pest or weed control at 150 ppm (Pyricularia oryzae): 0%

O=c1c(Cl)nsnc1Oc1c(Cl)c(Cl)c(Cl)c(Cl)c1Cl [Compound 31, 3-chloro-5-(pentachlorophenoxy)-4H--1,2,6-thiadiazine-4-one]
pest or weed control at 150 ppm (Uromyces phaseoli [1]): 0% | pest or weed control at 150 ppm (Uromyces phaseoli [2]): 0% | pest or weed control at 150 ppm (Erysiphe polygoni): 100% | inhibition at 5 ppm (Sclerotinia fructicola): 55% | inhibition at 10 ppm (Sclerotinia fructicola): 52% | inhibition at 20 ppm (Sclerotinia fructicola): 72% | inhibition at 40 ppm (Sclerotinia fructicola): 52% | pest or weed control at 150 ppm (Pyricularia oryzae): 0%

O=c1c(Cl)nsnc1Oc1cccc2ccccc12 [Compound 32, 3-chloro-5(1-naphthoxy)-4H-1,2,6-thiadiazin-4-one]
pest or weed control at 150 ppm (Uromyces phaseoli [1]): 90% | pest or weed control at 150 ppm (Uromyces phaseoli [2]): 0% | pest or weed control at 150 ppm (Erysiphe polygoni): 90% | inhibition at 5 ppm (Sclerotinia fructicola): 74% | inhibition at 10 ppm (Sclerotinia fructicola): 79% | inhibition at 20 ppm (Sclerotinia fructicola): 76% | inhibition at 40 ppm (Sclerotinia fructicola): 100% | pest or weed control at 150 ppm (Pyricularia oryzae): 0%

O=c1c(Cl)nsnc1Oc1ccccc1Br [Compound 34, 3-chloro-5-(2-bromophenoxy)-4H-1,2,6,-thiadiazin-4-one]
pest or weed control at 150 ppm (Uromyces phaseoli [1]): 85% | pest or weed control at 150 ppm (Uromyces phaseoli [2]): 0% | pest or weed control at 150 ppm (Erysiphe polygoni): 95% | inhibition at 5 ppm (Sclerotinia fructicola): 33% | inhibition at 10 ppm (Sclerotinia fructicola): 72% | inhibition at 20 ppm (Sclerotinia fructicola): 100% | inhibition at 40 ppm (Sclerotinia fructicola): 100% | pest or weed control at 150 ppm (Pyricularia oryzae): 0%

O=c1c(Cl)nsnc1Oc1ccc(O)cc1 [Compound 35, 3-chloro-5-(4-hydroxyphenoxy)-4H-1,2,6-thiadiazin-4-one]
pest or weed control at 150 ppm (Uromyces phaseoli [1]): 100% | pest or weed control at 150 ppm (Uromyces phaseoli [2]): 0% | pest or weed control at 150 ppm (Erysiphe polygoni): 0% | inhibition at 5 ppm (Sclerotinia fructicola): 8% | inhibition at 10 ppm (Sclerotinia fructicola): 27% | inhibition at 20 ppm (Sclerotinia fructicola): 69% | inhibition at 40 ppm (Sclerotinia fructicola): 100% | pest or weed control at 150 ppm (Pyricularia oryzae): 0%

O=C(Nc1ccccc1)Oc1ccc(Oc2nsnc(Cl)c2=O)cc1 [Compound 37, 3-chloro-5-[4-(phenylaminocarbonyloxy)phenoxy]-4H-1,2,6,-thiadiazin-4-one]
pest or weed control at 150 ppm (Uromyces phaseoli [1]): 100% | pest or weed control at 150 ppm (Uromyces phaseoli [2]): 0% | pest or weed control at 150 ppm (Erysiphe polygoni): 0% | inhibition at 5 ppm (Sclerotinia fructicola): 30% | inhibition at 10 ppm (Sclerotinia fructicola): 59% | inhibition at 20 ppm (Sclerotinia fructicola): 56% | inhibition at 40 ppm (Sclerotinia fructicola): 59% | pest or weed control at 150 ppm (Pyricularia oryzae): 0%

O=C(OCc1ccccc1)Oc1ccc(Oc2nsnc(Cl)c2=O)cc1 [Compound 38, 3-chloro-5-[4-(phenylmethoxycarbonyloxy)phenoxyl]-4H-1,2,6-thiadiazin-4-one]
pest or weed control at 150 ppm (Uromyces phaseoli [1]): 0% | pest or weed control at 150 ppm (Uromyces phaseoli [2]): 100% | pest or weed control at 150 ppm (Erysiphe polygoni): 0% | inhibition at 5 ppm (Sclerotinia fructicola): 0% | inhibition at 10 ppm (Sclerotinia fructicola): 0% | inhibition at 20 ppm (Sclerotinia fructicola): 0% | inhibition at 40 ppm (Sclerotinia fructicola): 8% | pest or weed control at 150 ppm (Pyricularia oryzae): 0%

CSc1ccc(Oc2nsnc(Cl)c2=O)cc1 [Compound 39, 3-chloro-5-[(4-methylthio)phenoxy]-4H-1,2,6,-thiadiazin-4-one]
pest or weed control at 150 ppm (Uromyces phaseoli [1]): 98% | pest or weed control at 150 ppm (Uromyces phaseoli [2]): 0% | pest or weed control at 150 ppm (Erysiphe polygoni): 0% | inhibition at 5 ppm (Sclerotinia fructicola): 41% | inhibition at 10 ppm (Sclerotinia fructicola): 48% | inhibition at 20 ppm (Sclerotinia fructicola): 63% | inhibition at 40 ppm (Sclerotinia fructicola): 85% | pest or weed control at 150 ppm (Pyricularia oryzae): 0%

C[S+]([O-])c1ccc(Oc2nsnc(Cl)c2=O)cc1 (stereo not shown) [Compound 40, 3-chloro-5-[(4-methylsulfinyl)phenoxy]-4H-1,2,6,-thiadiazin-4-one]
pest or weed control at 150 ppm (Uromyces phaseoli [1]): 98% | pest or weed control at 150 ppm (Uromyces phaseoli [2]): 0% | pest or weed control at 150 ppm (Erysiphe polygoni): 0% | inhibition at 5 ppm (Sclerotinia fructicola): 4% | inhibition at 10 ppm (Sclerotinia fructicola): 59% | inhibition at 20 ppm (Sclerotinia fructicola): 89% | inhibition at 40 ppm (Sclerotinia fructicola): 100% | pest or weed control at 150 ppm (Pyricularia oryzae): 0%

CC(=O)Nc1cccc(Oc2nsnc(Cl)c2=O)c1 [Compound 42, 3-[(3-N--acetylamino)-phenoxy]-5-chloro-4H--1,2,6-thiadiazin-4-one]
pest or weed control at 150 ppm (Uromyces phaseoli [1]): 100% | pest or weed control at 150 ppm (Uromyces phaseoli [2]): 0% | pest or weed control at 150 ppm (Erysiphe polygoni): 0% | inhibition at 5 ppm (Sclerotinia fructicola): 24% | inhibition at 10 ppm (Sclerotinia fructicola): 35% | inhibition at 20 ppm (Sclerotinia fructicola): 56% | inhibition at 40 ppm (Sclerotinia fructicola): 100% | pest or weed control at 150 ppm (Pyricularia oryzae): 0%

CC(=O)Nc1ccccc1Oc1nsnc(Cl)c1=O [Compound 43, 3-[(2-acetylamino)-phenoxy]-5-chloro-4H--1,2,6-thiadiazin-4-one]
pest or weed control at 150 ppm (Uromyces phaseoli [1]): 0% | pest or weed control at 150 ppm (Uromyces phaseoli [2]): 0% | pest or weed control at 150 ppm (Erysiphe polygoni): 0% | inhibition at 5 ppm (Sclerotinia fructicola): 0% | inhibition at 10 ppm (Sclerotinia fructicola): 0% | inhibition at 20 ppm (Sclerotinia fructicola): 17% | inhibition at 40 ppm (Sclerotinia fructicola): 22% | pest or weed control at 150 ppm (Pyricularia oryzae): 0%

O=c1c(Cl)nsnc1Oc1cccc(C(F)(F)F)c1 [Compound 44, 3-chloro-5-[(3-trifluoromethyl)phenoxy]-4H--1,2,6-thiadiazin-4-one]
pest or weed control at 150 ppm (Uromyces phaseoli [1]): 100% | pest or weed control at 150 ppm (Uromyces phaseoli [2]): 0% | pest or weed control at 150 ppm (Erysiphe polygoni): 100% | inhibition at 5 ppm (Sclerotinia fructicola): 76% | inhibition at 10 ppm (Sclerotinia fructicola): 100% | inhibition at 20 ppm (Sclerotinia fructicola): 100% | inhibition at 40 ppm (Sclerotinia fructicola): 100% | pest or weed control at 150 ppm (Pyricularia oryzae): 0%

O=C(O)Cc1ccccc1Oc1nsnc(Cl)c1=O [Compound 45, 3-(2-carboxymethylphenoxy)-5-chloro-4H--1,2,6-thiadiazin-4-one]
pest or weed control at 150 ppm (Uromyces phaseoli [1]): 95% | pest or weed control at 150 ppm (Uromyces phaseoli [2]): 0% | pest or weed control at 150 ppm (Erysiphe polygoni): 0% | inhibition at 5 ppm (Sclerotinia fructicola): 9% | inhibition at 10 ppm (Sclerotinia fructicola): 3% | inhibition at 20 ppm (Sclerotinia fructicola): 38% | inhibition at 40 ppm (Sclerotinia fructicola): 59% | pest or weed control at 150 ppm (Pyricularia oryzae): 0%

N#CCc1ccc(Oc2nsnc(Cl)c2=O)cc1 [Compound 46, 3-chloro-5-[(4-cyanomethyl)-phenoxy]4H--1,2,6-thiadiazin-4-one]
pest or weed control at 150 ppm (Uromyces phaseoli [1]): 0% | pest or weed control at 150 ppm (Uromyces phaseoli [2]): 0% | pest or weed control at 150 ppm (Erysiphe polygoni): 0% | inhibition at 5 ppm (Sclerotinia fructicola): 19% | inhibition at 10 ppm (Sclerotinia fructicola): 76% | inhibition at 20 ppm (Sclerotinia fructicola): 81% | inhibition at 40 ppm (Sclerotinia fructicola): 100% | pest or weed control at 150 ppm (Pyricularia oryzae): 0%

CC(=O)c1ccc(Oc2nsnc(Cl)c2=O)cc1 [Compound 47, 3-(4-acetylphenoxy)-5-chloro-4H--1,2,6-thiadiazin-4-one]
pest or weed control at 150 ppm (Uromyces phaseoli [1]): 0% | pest or weed control at 150 ppm (Uromyces phaseoli [2]): 0% | pest or weed control at 150 ppm (Erysiphe polygoni): 0% | inhibition at 5 ppm (Sclerotinia fructicola): 82% | inhibition at 10 ppm (Sclerotinia fructicola): 82% | inhibition at 20 ppm (Sclerotinia fructicola): 100% | inhibition at 40 ppm (Sclerotinia fructicola): 100% | pest or weed control at 150 ppm (Pyricularia oryzae): 90%

CC(=O)c1cccc(Oc2nsnc(Cl)c2=O)c1 [Compound 48, 3-(3-acetylphenoxy)-5-chloro-4H--1,2,6-thiadiazin-4-one]
pest or weed control at 150 ppm (Uromyces phaseoli [1]): 100% | pest or weed control at 150 ppm (Uromyces phaseoli [2]): 0% | pest or weed control at 150 ppm (Erysiphe polygoni): 0% | inhibition at 5 ppm (Sclerotinia fructicola): 82% | inhibition at 10 ppm (Sclerotinia fructicola): 88% | inhibition at 20 ppm (Sclerotinia fructicola): 94% | inhibition at 40 ppm (Sclerotinia fructicola): 100% | pest or weed control at 150 ppm (Pyricularia oryzae): 50%

CC(=O)c1ccccc1Oc1nsnc(Cl)c1=O [Compound 49, 3-(2-acetylphenoxy)-5-chloro-4H--1,2,6-thiadiazin-4-one]
pest or weed control at 150 ppm (Uromyces phaseoli [1]): 100% | pest or weed control at 150 ppm (Uromyces phaseoli [2]): 0% | pest or weed control at 150 ppm (Erysiphe polygoni): 0% | inhibition at 5 ppm (Sclerotinia fructicola): 14% | inhibition at 10 ppm (Sclerotinia fructicola): 33% | inhibition at 20 ppm (Sclerotinia fructicola): 75% | inhibition at 40 ppm (Sclerotinia fructicola): 100% | pest or weed control at 150 ppm (Pyricularia oryzae): 0%

O=C(O)c1ccc(Oc2nsnc(Cl)c2=O)cc1 [Compound 50, 3-(4-carboxyphenoxy)-5-chloro-4H--1,2,6-thiadiazin-4-one]
pest or weed control at 150 ppm (Uromyces phaseoli [1]): 90% | pest or weed control at 150 ppm (Uromyces phaseoli [2]): 0% | pest or weed control at 150 ppm (Erysiphe polygoni): 0% | inhibition at 5 ppm (Sclerotinia fructicola): 59% | inhibition at 10 ppm (Sclerotinia fructicola): 47% | inhibition at 20 ppm (Sclerotinia fructicola): 94% | inhibition at 40 ppm (Sclerotinia fructicola): 100% | pest or weed control at 150 ppm (Pyricularia oryzae): 90%
